Test results from US9505834B2, “Methods for controlling the galactosylation profile of recombinantly-expressed proteins” (AbbVie Inc., priority 2011, dated 2016).

Tests used:
[1] = test system: CHO cell line producing mAb #1; experiment: Example 7 oligosaccharide analysis, CDM GIA-1, batch shake flasks; assay type: cell-based, Chinese Hamster
Description: (§1) For all studies with CHO cell lines described throughout this invention, samples were collected daily and measured for cell density and viability using a Cedex cell counter. Retention samples for titer analysis via Poros A method were collected by centrifugation at 12,000 RPM for 5 min when the culture viability began declining. The cultures were harvested by collecting 125 mL aliquots and centrifuging at 3,000 RPM for 30 min when culture viability was near or below 50%. All supernatants were stored at −80° C. until analysis.
(§2) For all studies, the harvest samples were Protein A purified and prepared for the oligosaccharide assay using the following procedures. As a first step in the process of establishing the identity and quantifying the oligosaccharides, they are released from the protein by enzymatic digestion with N-glycanase. Once the glycans are released, the free reducing end of each glycan is labeled by reductive amination with a fluorescent tag, 2-aminobenzamide (2-AB). The resulting labeled glycans are separated by normal-phase HPLC (NP-HPLC) in acetonitrile: 50 mM ammonium formate, pH 4.4, and detected by a fluorescence detector. Quantitation is based on the relative area percent of detected sugars. Throughout this invention, the relative area percentages of the agalactosyl fucosylated biantennary oligosaccharides, denoted as NGA2F+NGA2F-GlcNAc sum, and the galactose-containing fucosylated biantennary oligosaccharides NA1F+NA2F sum are reported and discussed.
Growth and production media for the CHO cell line producing mAb #1 were prepared using a proprietary Life Technologies Gibco chemically defined media, GIA-1. […] All media were filtered through Corning 0.5 L or 1 L filter systems (0.22 μm PES) and stored at 4° C. until use.
Upon thaw, cells were expanded for 6 (3 day each) passages in a combination of 250 mL, 500 mL, and 1000 mL Corning vented non-baffled shake flasks. Production cultures were initiated in duplicate 500 mL Corning vented non-baffled shake flasks (200 mL working volume) at an initial VCD of approximately 0.5×10^6 cells/mL. Cultures were maintained on orbital shakers at 125 RPM in a dry incubator at 35° C. and 5% CO2. A glucose solution (1.25% (v/v) of 40% solution) was fed when the media glucose concentration fell below 3 g/L. […]

[2] = test system: adalimumab-producing CHO cell line #2; experiment: Example 4 oligosaccharide analysis, CDM GIA-1, batch shake flasks; assay type: cell-based, Chinese Hamster
Description: as §1, §2
Growth and production media for the adalimumab-producing CHO cell line #2 were prepared using a proprietary Life Technologies Gibco chemically defined media, GIA-1. […] All media were filtered through Corning 0.5 L or 1 L filter systems (0.22 μm PES) and stored at 4° C. until use.
Upon thaw, cells were expanded for 5 to 8 (2 to 3 day each) passages in a combination of 250 mL, 500 mL, and 1000 mL Corning vented non-baffled shake flasks. Production cultures were initiated in duplicate 500 mL Corning vented non-baffled shake flasks (200 mL working volume) at an initial VCD of approximately 0.5×10^6 cells/mL. Cultures were maintained on orbital shakers at 180 RPM in a dry incubator at 35° C. and 5% CO2. A glucose solution (1.25% (v/v) of 40% solution) was fed when the media glucose concentration fell below 3 g/L.
Galactose was supplemented at the following levels in production media: 0, 10, and 20 mM. […] This study was run in 2 blocks.

[3] = test system: adalimumab-producing CHO cell line; experiment: Example 3 oligosaccharide analysis, hydrolysate-based media, batch shake flasks; assay type: cell-based, Chinese Hamster
Description: as §1, §2
(§3) All media were filtered through Corning 0.5 L or 1 L filter systems (0.22 μm PES) and stored at 4° C. until use.
(§4) Production cultures were initiated in duplicate 500 mL Corning vented non-baffled shake flasks (200 mL working volume) at an initial VCD of approximately 0.5×10^6 cells/mL. Cultures were maintained on orbital shakers at 110 RPM in a dry incubator at 35° C. and 5% CO2. A glucose solution (1.25% (v/v) of 40% solution) was fed when the media glucose concentration fell below 3 g/L.

[4] = test system: adalimumab-producing NSO cell line; experiment: Example 6 oligosaccharide analysis, CDM PFBM-3/PFFM-4, fed-batch shake flasks; assay type: cell-based
From the text: as §2
Growth and production media for the adalimumab-producing NSO cell line were prepared using a proprietary Life Technologies Gibco chemically defined media, PFBM-3 basal medium plus PFFM-4 feed medium.
Upon thaw, cells were expanded for 3 to 5 (2 days each) passages in a combination of 250 mL, 500 mL, 1 L, 2 L and 3 L Corning vented non-baffled shake flasks. Production cultures were initiated in single 1 L Corning vented non-baffled shake flasks (240 mL initial working volume) at an initial VCD of approximately 2.5×10^5 cells/mL. Cultures were maintained on orbital shakers at 100 RPM in a dry incubator at 37° C. and 5% CO2. The shake flask study was run in a fed-batch mode and the culture was fed PFFM-4 as follows: 24 mL—day 2, 28.8 mL—day 4, 28.8 mL—day 6, and 28.8 mL—day 8.
Samples were collected every 2 days and measured for cell density and viability using a Cedex cell counter. Retention samples for titer analysis via Poros A method were collected daily beginning on Day 8 by centrifugation at 2,000 g for 10 min and then filtered through 0.2 μm PVDF syringe filter. The cultures were harvested on production day 10. The entire culture was collected, chilled on ice to approximately 0° C. for 1.5 hours, the cells and debris flocculated at pH 5.0 by the addition of 1M citric acid and held for 15 minutes, and centrifuged at 4000x g for 15 min at 5° C. The supernatant was passed through 0.20 μm Millipore Stericup PES filters, and, immediately post filtration, the acidified clarified cell-free harvest was neutralized with 2M Tris to pH 7.1±0.2. The cell free harvest was transferred to PETG bottles and stored at −80° C. until analysis.
Galactose was supplemented at the following levels in both production and feed media: 0, 1, 4, 5, and 10 mM.

[5] = test system: adalimumab-producing CHO cell line; settings: 10 μM manganese chloride; within historical variation
Description: as §1, §3, §4

[6] = manganese chloride alone, range 0 to 40 μM
[7] = 0.5 μM manganese chloride alone

O=C[C@H](O)[C@@H](O)[C@@H](O)[C@H](O)CO [galactose, D(+)Galactose]
decrease in the NGA2F+NGA2F-GlcNac sum ([1]; 40 mM galactose alone): 12%
maximum decrease in the NGA2F+NGA2F-GlcNac sum ([1]; galactose alone up to 40 mM): 12%
maximum increase in the NA1F+NA2F sum ([1]; galactose alone up to 40 mM): 13%
decrease in the NGA2F+NGA2F-GlcNac sum ([2]; 10 mM galactose alone): 6%
maximum decrease in the NGA2F+NGA2F-GlcNac sum ([2]; 20 mM galactose alone): 9%
maximum increase in the NA1F+NA2F sum ([2]; 20 mM galactose alone): 10%
maximum decrease in the NGA2F+NGA2F-GlcNac sum ([3]; galactose alone up to 40 mM): 4%
maximum increase in the NA1F+NA2F sum ([3]; galactose alone up to 40 mM): 4%
decrease in the NGA2F+NGA2F-GlcNac sum ([4]; 4 mM galactose alone): 2%
increase in the NA1F+NA2F sum ([4]; 10 mM galactose alone): 15%
maximum decrease in the NGA2F+NGA2F-GlcNac sum ([4]; 10 mM galactose alone): 14%

Manganese (II) Chloride [manganese chloride]
decrease in the NGA2F+NGA2F-GlcNac sum ([1]; 40 μM manganese chloride alone): 20%
maximum decrease in the NGA2F+NGA2F-GlcNac sum [1, 6]: 26%
maximum increase in the NA1F+NA2F sum [1, 6]: 27%
maximum VCD compared to all other cultures [5]: slightly higher maximum VCD
decrease in the NGA2F+NGA2F-GlcNac sum ([2]; 10 μM manganese chloride alone): 18%
maximum decrease in the NGA2F+NGA2F-GlcNac sum ([2]; 20 μM manganese chloride alone): 22%
maximum increase in the NA1F+NA2F sum ([2]; 20 μM manganese chloride alone): 23%
decrease in the NGA2F+NGA2F-GlcNac sum ([3]; manganese chloride alone, range 0 to 40 μM, within assay variability): approximately 1%
decrease in the NGA2F+NGA2F-GlcNac sum ([4]; 0.2 μM manganese chloride alone): 12%
increase in the NA1F+NA2F sum [4, 7]: 20%
maximum decrease in the NGA2F+NGA2F-GlcNac sum [4, 7]: 18%
